One data set relates to KG-1a. The data set is described as follows: MTT proliferation assay on leukemia cell line. In kind it is cell-based. The source says: (§1) With confirmation of compound 40 promoting the expansion of HSCs, we further examined whether it might also increase the risk of malignant diseases. In order to determine the effect of compound 40 on hematological tumorigenesis, proliferation of both leukemia cell lines (KG-1 and KG-1a) and myeloma cell lines (MM.1S and RPMI 8226) was further investigated by a standard MTT assay.
(§2) To evaluate the toxicity of our top compounds, we performed a cell proliferation assay using 32D cells as well as leukemia cell lines and myeloma cell lines. Weihi-3 cells were cultured at 37 °C under 5% CO2 in RPMI 1640 medium supplemented with 10%FBS. After 48 h, the supernatant was collected and filtered. 32D cells were cultured in RPMI 1640 with 10% FBS and 10% supernatant collected from Weihi-3 cells. 8,000 32D cells or leukemia cell line (KG-1 or KG-1a) or myeloma cell line (MM.1S or RPMI 8226) were plated in a 96-well plate in 198 μL culture media per well, and then cultured (37 °C, 5% CO2) overnight. 2 μL of serially diluted compounds dissolved in saline or DMSO were added to each well and incubated (37 °C, 5% CO2) for 72 h. The concentration of DMSO was equal to the one in corresponding compound group. 20 μL of MTT solution was added to each well and then incubated (37 °C, 5% CO2) for 4 h. The percentage of cell survival was determined using the MTT assay, as previously described. The data was analyzed using GraphPad Prism v6.0.

A further data set has as its system KG-1. The data set is described as follows: MTT proliferation assay on leukemia cell line. The data set is classed as cell-based.
Description: as §1, §2

Entries after “also recorded” stand apart in the source; their conditions may differ.

With `O=C([O-])c1ccc(S(=O)(=O)NC2CCCCC2)cc1.[Na+]` [Compound 40, sodium 4-(N-cyclohexylsulfamoyl)benzoate], the “enhancement of proliferation (MTT)” value with KG-1a (any concentration) and in the data set on KG-1 (any concentration) was “did not enhance; also recorded: no activity” in each case. Also, the “effect on leukemia cell line” value with KG-1a (high concentration (20 μM)) and in the data set on KG-1 (high concentration (20 μM)) was “no effect” each time.

The values are drawn from article PMC4683533, “Discovery of novel INK4C small-molecule inhibitors to promote human and murine hematopoietic stem cell ex vivo expansion” (Scientific Reports, 2015).
